{"source": "patent US12220394B2", "about": "“Pharmaceutical composition for prevention or treatment of kidney damage” (National University Corporation Kanazawa University, priority 2018, dated 2025)", "key": {"[1]": {"system": "kidney tissue after ischemia reperfusion", "assay": "PAS staining and ATN score of kidney tissue sections after renal ischemia reperfusion", "assay_type": "in vivo, C57BL/6J mice", "conditions": "10 days after ischemia reperfusion", "procedure": "The animals were reared with free access to water and feed under conditions with an SPF environment and 12-hour light-dark cycling. C57BL/6J mice were purchased from Clea Japan, Inc. (Osaka). Male 12- to 16-week-old mice were treated by renal ischemia reperfusion (hereunder also referred to as “I/R”). The renal pedicles were clamped with a non-traumatic clip (Natsume Seisakusho, Tokyo) under pentobarbital anesthesia to elicit ischemia. The clips were released after 40 minutes. The body temperature was kept at 37° C. during treatment. […] On day 10 after IR treatment, the kidney tissues were sampled. After ischemia reperfusion, the kidneys sampled on day 10 were fixed with 10% neutral buffered formalin and embedded in paraffin, and then stained with periodic acid-Schiff (PAS staining). The stained slices were photographed with a bright-field microscope (FIG. 1). Debris stained with PAS (skin boundary) or brush border (skin boundary and cortical region) were quantitatively evaluated in at least 10 different locations. The debris, renal tubular dilation, brush border damage, and renal tubule necrosis were evaluated by ATN score (0: none, 1: mild, 2: moderate, 3: severe). Sample evaluation was carried out blind."}, "[2]": {"system": "macrophages in kidney tissue", "assay": "F4/80 immunostaining of kidney tissue after renal ischemia reperfusion", "assay_type": "in vivo, C57BL/6J mice", "procedure": "The animals were reared with free access to water and feed under conditions with an SPF environment and 12-hour light-dark cycling. C57BL/6J mice were purchased from Clea Japan, Inc. (Osaka). Male 12- to 16-week-old mice were treated by renal ischemia reperfusion (hereunder also referred to as “I/R”). The renal pedicles were clamped with a non-traumatic clip (Natsume Seisakusho, Tokyo) under pentobarbital anesthesia to elicit ischemia. The clips were released after 40 minutes. The body temperature was kept at 37° C. during treatment. The mice were reared with free access to water (control) or 20 mM D-alanine-containing water, prior to 14 days after IR treatment. On day 10 after IR treatment, the kidney tissues were sampled. After ischemia reperfusion, the kidney tissues harvested on day 10 were fixed with 10% neutral buffered formalin and supplied for immunostaining using F4/80 antibody (Invitrogen, catalog #: MF48,000). F4/80 is a protein expressed specifically by macrophages, and it allows visualization of macrophages in kidney tissue. In the water-administered control group, cells stained with F4/80 were found accumulated in kidney tissue ([…]), but in the D-alanine-administered groups (20 mM and 80 mM) such cellular accumulation was minimal (FIG. 3(A)). The proportion of stained region in each group was measured (FIG. 3(B))."}, "[3]": {"system": "fibrotic tissue in kidney", "assay": "AZAN staining of kidney tissue after renal ischemia reperfusion", "assay_type": "in vivo, C57BL/6J mice", "procedure": "The animals were reared with free access to water and feed under conditions with an SPF environment and 12-hour light-dark cycling. C57BL/6J mice were purchased from Clea Japan, Inc. (Osaka). Male 12- to 16-week-old mice were treated by renal ischemia reperfusion (hereunder also referred to as “I/R”). The renal pedicles were clamped with a non-traumatic clip (Natsume Seisakusho, Tokyo) under pentobarbital anesthesia to elicit ischemia. The clips were released after 40 minutes. The body temperature was kept at 37° C. during treatment. The mice were reared with free access to water (control) or 20 mM D-alanine-containing water, prior to 14 days after IR treatment. On day 10 after IR treatment, the kidney tissues were sampled. After ischemia reperfusion, the kidney tissues sampled on day 10 were fixed with 10% neutral buffered formalin and provided for AZAN staining. In AZAN staining, fibrotic tissue is stained with aniline blue. […] The proportion of stained region in each group was measured (FIG. 4(B))."}, "[4]": {"conditions": "cited from earlier work"}, "[5]": {"conditions": "D-alanine group compared with water group"}, "[6]": {"conditions": "10 days after ischemia reperfusion, D-alanine group vs water group"}}}
{"smiles": "C[C@@H](N)C(=O)O", "note": "[D-alanine]", "values": [{"measurement": "PAS staining intensity of kidney tissue section (accumulation of inflammatory cells such as neutrophils and eosinophils)", "setting": "[1]; D-alanine 20 mM and 80 mM in drinking water vs water group", "result": "decreased in a dose-dependent manner"}, {"measurement": "grade of brush border region in kidney tissue section (ATN score)", "setting": "[1]; [5]", "result": "improved in a dose-dependent manner"}, {"measurement": "grade of intraluminal debris in kidney tissue section (ATN score)", "setting": "[1]; [5]", "result": "improved in a dose-dependent manner"}, {"measurement": "grade of necrosis in kidney tissue section (ATN score)", "setting": "[1]; [5]", "result": "improved in a dose-dependent manner"}, {"measurement": "F4/80 staining intensity of kidney tissue section (accumulation of macrophages and monocytes)", "setting": "[2]; [6]", "result": "decreased in a dose-dependent manner"}, {"measurement": "accumulation of cells stained with F4/80 in kidney tissue", "setting": "[2]; after ischemia reperfusion, D-alanine 20 mM and 80 mM vs water-administered control", "result": "minimal"}, {"measurement": "AZAN staining intensity of kidney tissue section (fibrosis)", "setting": "[3]; [6]", "result": "decreased in a dose-dependent manner"}, {"measurement": "aniline blue-stained regions (fibrotic tissue) in kidney tissue", "setting": "[3]; day 10 after ischemia reperfusion, D-alanine 20 mM and 80 mM vs water-administered control", "result": "reduced in a dose-dependent manner"}, {"measurement": "adverse events when used as a food", "setting": "[4]; ingestion on the order of 10 g", "result": "No adverse events have been reported"}, {"measurement": "toxicity via oral administration", "setting": "[4]; oral administration", "result": "no reported toxicity"}]}
